Entries after “also recorded” stand apart in the source; their conditions may differ.
Assays:
Hem-A plasma [1] = assay: dPT assay, anti-coagulant activity of NASPs in Hem-A plasma; type: biochemical, human; settings: for clotting time, dPT: Hem-A plasma without NASP 41.5 seconds; for inherent anticoagulant activity: concentrations up to 5000 nM; for prolongation of clotting time: concentrations>5000 nM
Protocol: (§1) The dPT assay used was a modified standard clinical PT assay (Nordfang et al. (1991) Thromb Haemost 66:464-467; Welsch et al. (1991) Thrombosis Research 64: 213-222). SIMPLASTIN EXCEL thromboplastin reagent (Organon Teknika) was reconstituted with the manufacturer's diluent and further diluted 1:100 in 0.9% saline. The thromboplastin reagent, 25 mM CaCl2, and plasma samples were pre-warmed to 37° C. before initiating the assay. 100 μl of thawed plasma was aliquoted into microcentrifuge tubes. […] 100 μl of the diluted thromboplastin reagent and 100 μl of 25 mM CaCl2 were added to fibrin cups (Fisher) prewarmed to 37° C. 100 μl of plasma (normal or hemophilic) containing the test agent or saline control was added to the fibrin cups containing the thromboplastin reagent and CaCl2 to initiate clotting. The time for plasma clotting was measured with a BBL FIBROSYSTEM fibrometer.
Test compounds were diluted to 100 μM, 10 μM, 2 μM and 200 nM. For each test compound, 12.5 μl of a diluted solution containing the test compound was added to 237.5 μl of Hem-A plasma and incubated at room temperature. 100 μl of plasma containing the test compound was removed for dPT assays of plasma clotting time as described in Example 2.

Hem-A plasma [2] = assay: dPT assay, Hem-A plasma in absence of exogenous TFPI; type: biochemical, human; settings: dPT
Protocol: as §1
The ability of NASPs to accelerate clotting of factor-deficient plasma in the absence of TFPI supplementation was also tested in dPT assays. A procoagulant response, if observed, may be related to neutralization of endogenous TFPI activity, which is present in human plasma at approximately 100 ng/ml (Nordfang et al., supra), largely associated with lipoprotein or platelets (Broze et al. (1992) Semin. Hematol. 29:159-169; Broze et al. (2003) J. Thromb. Haemost. 1:1671-1675).
The ability of NASPs to accelerate clotting of Hem-A plasma in the absence of exogenous TFPI was tested. Fucoidan or PPS were titrated into Hem A plasma and dPT assays were performed. Additionally, the dose-response to factor VIIa was analyzed as a positive control for amplifying extrinsic pathway activation.

TFPI [3] = biological target: T1, TFPI (Homo sapiens, UniProt P10646); assay: dPT assay, inhibition of TFPI activity in Hem-A plasma, TFPI preincubated with NASP; type: biochemical; settings: for TFPI-neutralizing activity: FIGS. 4-6 / data not shown; for clotting time, dPT: Hem-A + TFPI, plasma alone 44, + TFPI 151 seconds
T1 construct: purchased American Diagnostica (Stamford, Conn.)
T1 sequence (P10646 29-304): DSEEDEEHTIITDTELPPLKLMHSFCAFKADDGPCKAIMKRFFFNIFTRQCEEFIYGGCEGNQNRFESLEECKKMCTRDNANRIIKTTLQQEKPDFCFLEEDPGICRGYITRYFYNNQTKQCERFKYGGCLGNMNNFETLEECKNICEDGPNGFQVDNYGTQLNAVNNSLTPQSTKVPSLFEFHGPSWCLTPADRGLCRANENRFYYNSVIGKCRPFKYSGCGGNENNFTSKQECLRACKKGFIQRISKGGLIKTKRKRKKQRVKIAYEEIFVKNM
Protocol: as §1
(§2) Inhibition of TFPI activity by NASPs was assessed in dPT clotting assays with normal or hemophilic plasma and added recombinant TFPI. Diluted recombinant TFPI was preincubated with NASPs for 5 minutes at room temperature before plasma was added. After addition of plasma, the mixture was incubated for an additional 25 minutes followed by dPT initiation.

TFPI [4] = biological target: T1, TFPI; assay: dPT assay, inhibition of TFPI activity in Hem-B plasma, TFPI preincubated with NASP; type: biochemical; settings: for clotting time, dPT: Hem-B + TFPI, plasma alone 46, + TFPI 101 seconds
Protocol: as §1, §2
The acceleration of plasma clotting by the NASPs in the presence of TFPI was also tested in Hem-B and normal plasma.

TFPI [5] = biological target: T1, TFPI; assay: dPT assay, inhibition of TFPI activity in Hem-A plasma without preincubation; type: biochemical; settings: for clotting time, dPT: Hem-A + TFPI, no preincubation, HemA + TFPI 183, alone 45 seconds
Protocol: as §1
Experiments were repeated without a preincubation of the sulfated polysaccharides with TFPI prior to exposure to plasma. To extend the stringency of the test for NASP inhibition of TFPI activity, TFPI was added to the plasma before the NASP was added.

[6] = test system: Hem-A plasma containing 1.25% FACT plasma; assay: aPTT assay, NASPs in 1.25% FACT diluted in Hem-A plasma; type: biochemical, human
Protocol: Activated Partial Thromboplastin Time (aPTT) Assay The aPTT assay was performed as described previously with modifications (PDR Staff Physicians' Desk Reference. 2004, Anderson Lo, Barrowcliffe, T. W., Holmer, E., Johnson, E. A., Sims, G. E. C. Thromb. Res. 1976; 9:575-580). 25 mM CaCl2 and fibrin cups (Fisher) were pre-warmed to 37° C. 0.1 ml of thawed human plasma (normal or hemophilic) was added to warmed test tubes. 5 μl of saline (e.g. Sigma) or 5 μl of test agent (e.g., NASP) dissolved in saline was incubated with 95 μl of plasma for 30 minutes at room temperature. APTT reagent (e.g. Organon Teknika) was reconstituted in 3 ml distilled water and 0.1 ml of the reconstituted solution containing the APTT reagent was added to each test tube. 0.2 ml of plasma containing the test agent or saline control and aPTT reagent were transferred from test tubes to pre-warmed fibrin cups and incubated for 2-3 minutes. 0.1 ml of pre-warmed 25 mM CaCl2 was added to initiate clotting, and the time for plasma clotting was measured with a BBL FIBROSYSTEM fibrometer.
The effect of NASPs on the clotting time of plasma was determined as follows: 5 μl of a NASP was added to 95 μl of 1.25% FACT diluted in human Hem-A plasma and incubated at room temperature for 30 minutes. aPTT assays were performed to determine plasma clotting time as described in Example 1.

Hem-A plasma [7] = assay: dPT assay, TFPI titrated into FVIII deficient (Hem-A) plasma; type: biochemical, human
Protocol: as §1
A 100 μg/mL TFPI stock solution (American Diagnostica, Stamford, Conn.) was sequentially diluted in saline to generate TFPI solutions at the following concentrations: 20, 15, 10, 6, and 2 μg/mL. 5 μl of these TFPI dilutions were mixed with 95 μl of FVIII deficient plasma and incubated at room temperature for 30 minutes. dPT assays were performed as follows: SIMPLASTIN thromboplastin was diluted 1:100 in saline and prewarmed to 37° C. 25 mM CaCl2 and 100 μl of test plasma containing TFPI was prewarmed to 37° C. 100 μl SIMPLASTIN thromboplastin and 100 μl of CaCl2 were mixed and clotting time was measured using a BBL fibrometer.

Substance | clotting time, dPT (Hem-A plasma [1]; 10 nM) [s] | clotting time, dPT (Hem-A plasma [1]; 100 nM) [s] | clotting time, dPT (Hem-A plasma [1]; 500 nM) [s] | clotting time, dPT (Hem-A plasma [1]; 5000 nM) [s] | inherent anticoagulant activity (Hem-A plasma [1]) | prolongation of clotting time (Hem-A plasma [1]; dPT) | acceleration of hemophilic plasma clotting in the absence of TFPI addition (Hem-A plasma [2]) | TFPI-neutralizing activity (TFPI [3]; dPT) | clotting time, aPTT ([6]; 0.8 nM) [s] | clotting time, aPTT ([6]; 4 nM) [s] | clotting time, aPTT ([6]; 20 nM) [s] | clotting time, aPTT ([6]; 100 nM) | clotting time, aPTT ([6]; 500 nM) | also measured
De-N-Sulfated-Heparin [De-N-SH] | 40 | 38 | 38 | 41 | failed to show inherent anticoagulant activity | little or no prolongation of clotting time | failed to accelerate clotting times | did not exhibit any TFPI-neutralizing activity |  |  |  |  |  | 
N-Acetyl-Heparin [NAH] | 38 | 37 | 36 | 38 |  | little or no prolongation of clotting time | had no activity; also recorded: did not accelerate hemophilic plasma clotting times | only weak TFPI-neutralizing activity | 70 | 69 | 67 | 74 s | 85 s | clotting time, dPT (TFPI [4]; 0.16 nM): 102 s; clotting time, dPT (TFPI [4]; 0.8 nM): 101 s; clotting time, dPT (TFPI [4]; 4 nM): 106 s; clotting time, dPT (TFPI [4]; 20 nM): 106 s; clotting time, dPT (TFPI [4]; 100 nM): 94 s; clotting time, dPT (TFPI [4]; 500 nM): 68 s; clotting time, dPT (TFPI [5]; 0.8 nM): 165 s; clotting time, dPT (TFPI [5]; 4 nM): 180 s; clotting time, dPT (TFPI [5]; 20 nM): 184 s; clotting time, dPT (TFPI [5]; 100 nM): 125 s; clotting time, dPT (TFPI [5]; 500 nM): 89 s; concentration producing approximately 50% prolongation in clotting time, fold higher than for heparin ([6]; APTT, Hem-A plasma): > 500 fold; clotting time, dPT (TFPI [3]; 0.16 nM, preincubation): 144 s; clotting time, dPT (TFPI [3]; 0.8 nM, preincubation): 158 s; clotting time, dPT (TFPI [3]; 4 nM, preincubation): 160 s; clotting time, dPT (TFPI [3]; 20 nM, preincubation): 141 s; clotting time, dPT (TFPI [3]; 100 nM, preincubation): 99 s; clotting time, dPT (TFPI [3]; 500 nM, preincubation): 84 s; concentration that accelerates (shortens) clotting of Hem-A plasma containing TFPI (TFPI [3]; dPT, preincubation): approximately 100 nM
De-N-Sulfated-Acetylated-Heparin [De-N—S-AH] | 39 | 37 | 40 | 55 | failed to show inherent anticoagulant activity |  | failed to accelerate clotting times | did not exhibit any TFPI-neutralizing activity |  |  |  |  |  | 
TFPI: human recombinant TFPI from American Diagnostica |  |  |  |  |  |  |  |  |  |  |  |  |  | Clotting time (Hem-A plasma [7]; TFPI 0.1 μg/mL in plasma): 60 s; Clotting time (Hem-A plasma [7]; TFPI 0.3 μg/mL in plasma): 94 s; Clotting time (Hem-A plasma [7]; TFPI 0.5 μg/mL in plasma): 98 s; Clotting time (Hem-A plasma [7]; TFPI 0.75 μg/mL in plasma): 173 s; Clotting time (Hem-A plasma [7]; TFPI 1 μg/mL in plasma): >200 s; Clotting time of Hem-B + TFPI (TFPI [4]; no NASP, Hem-B alone 46 seconds): Clotting time of Hem-B + TFPI: 101 seconds.; Clotting time HemA + TFPI (TFPI [5]; no NASP, Hem-A alone 45 seconds): HemA + TFPI: 183 seconds; clotting time of plasma with TFPI (TFPI [3]; TFPI approximately 0.5 μg/ml, from approximately 40 seconds, depending on experiment and source of plasma): 100 to 200 s; Clotting time of Hem-A plasma + TFPI (TFPI [3]; no NASP, TFPI approximately 0.5 μg/ml, plasma alone 44 seconds): Clotting time of Hem-A plasma + TFPI is 151 seconds.
Sodium Heparin | 40 | 92 | 400 |  |  |  |  |  | 70 | 70 | 200 | Not clotted | Not clotted | anticoagulant activity (Hem-A plasma [1]; dPT, concentrations exceeding 10 nM): markedly anticoagulant; effect on clotting time of Hem-A plasma containing TFPI (TFPI [3]; dPT, not shown): only prolonged clotting times
N-Acetyl-de-O-Sulfated-Heparin [NA-de-O-SH] | 40 | 40 | 40 | 40 | failed to show inherent anticoagulant activity | little or no prolongation of clotting time | failed to accelerate clotting times | did not exhibit any TFPI-neutralizing activity |  |  |  |  |  | 
